{
  "source": "patent US20260364101A1",
  "about": "“OLEUROPEIN IN THE MANAGEMENT OF CANCER” (FUNDACIÓN MIGUEL SERVET, priority 2023, published 2026)",
  "key": {"[1]": {"test_system": "myeloid cells from NSCLC patients", "assay": "myeloid cells from NSCLC patients treated ex vivo, flow cytometry (FIG. 6a)", "format": "cell-based, human", "procedure": "(§1) Surface and intracellular staining were carried out as described before with the following fluorochrome-conjugated antibody clones: AF488 anti-CD49d (R1-2), PE anti-CD4 (GK1.5), APCanti-CD8(53-6.7), brilliant Violet 510™ anti-I-A/I-E (M5/114.15.2,PE/Cyanine7anti-Ly-6G (1A8), and APC anti-CD80 (16-10A1) (Biolegend), FITC anti-IL-12 (C15.6) and BV421 anti-IL-2 (JES6-5H4) (BD Bioscience), APC-Vio® 770 anti-Ly-6C (REA796), PE REAfinity™ anti-F4/80 (REA126), and APC anti-CD68 (REA886) (Miltenyi), PerCP-Cyanine5.5 Anti-Human/Mouse CD11b (M1/70) (Tonbo), and AF488 anti-IFNγ (Clone XMG1.2) (BD Pharmigen). For human cells, it was used the following fluorochrome-conjugated antibodies: PerCP-Cy5.5-anti-CD11b (integrina alfa M) (M1/70), Violet Fluor 450 anti-CD14 antibody (61D3) (Tonbo), PE anti-CD115 (CSF-1R) (9-4D2-1E4) (Biolegend), PE-Cy™7 anti-CD11c (Clone B-ly6) (BD Bioscience), and APC anti-HLA-DR (REA517) (Miltenyi).\n(§2) Data were collected using the FACSCanto Flow Cytometer (BD Biosciences) for ex vivo and in vitro experiments at Navarrabiomed Biomedical Research Center and Cyroflex LX flow cytometer (Beckman Counter). Data were analyzed with Flowjo.\nTwenty-one patients diagnosed with locally advanced or metastatic NSCLC treated with the immune checkpoint inhibitors (ICI) pembrolizumab (anti-PD-1) were recruited for the study. The characteristics of the cohort under study have been described before, and this observational study was approved by the Ethics Committee of Clinical Investigations at the University Hospital of Navarre (reference number: PI_2020/115). 11 of the patients were chemoresistant. Blood samples from non-small cell lung cancer (NSCLC) patients were collected prior to treatment and before administration of each immunotherapy cycle.\nPBMCs were isolated as described and grown in vitro for 24 h in TEXCMACs medium (Miltenyi Biotec). Myeloid cells were obtained by adherence to plastic for 24 h. Then, 50,000 myeloid cells were seeded per well with 50 µM oleuropein in 96-well plates and incubated for seven days."}, "[2]": {"conditions": "to elenolic acid and glucose; cited from earlier work"}, "[3]": {"test_system": "MDSC subsets", "assay": "abundance of MDSC subsets in vivo", "conditions": "LXR agonist"}, "[4]": {"test_system": "TAMs", "assay": "morphology of ex vivo TAM cultures, phase contrast micrographs (FIG. 2a)", "format": "cell-based, mouse", "conditions": "TAMs treated with oleuropein", "procedure": "(§3) Immunosuppressive myeloid cell subsets resembling tumor-infiltrating subsets (g-MDSCs, m-MDSCs and TAMs) were differentiated from mouse bone marrow following published procedures using conditioning medium produced by LLC tumor cells stably expressing GMCSF and MCSF cells. g- and m-MDSCs were purified using the myeloid-derived suppressor cell isolation kit (Miltenyi Biotec, Bergisch, Germany) according to manufacturer's recommendations. MDSCs and TAMs were seeded with 500 nM BML-275 or 50 μM oleuropein and incubated for seven days."}, "[5]": {"test_system": "TAMs", "assay": "ex vivo differentiated TAMs treated with compound, marker expression by flow cytometry (FIG. 1b)", "format": "cell-based, mouse", "conditions": "oleuropein 50 μM", "procedure": "as §3, §1, §2"}, "[6]": {"test_system": "CD4 T cells", "assay": "mixed lymphocyte reaction (MLR) with TAMs as stimulator cells (FIG. 1c,d)", "format": "cell-based, mouse", "conditions": "treated TAMs as stimulators; 5 days", "procedure": "MLR were carried out following standard procedures. Briefly, 100,000 MDSCs or TAMs from C57BL/6 mice were co-cultured in 96-well plates with 100,000 lymphocytes from BALB/c mice. Co-cultured cells were treated with 50 µM oleuropein and compared with control vehicle. After 5 days, T-lymphocyte activation, differentiation and proliferation were assessed by flow cytometry. T-cell activation and proliferation markers (Ki-67) and pro-inflammatory cytokine production (IL-2 and IFNγ) were evaluated by flow cytometry in CD4 and CD8 T cells as described before.\nas §1, with “For human cells, it was used the following fluorochrome-conjugated antibodies: PerCP-Cy5.5-anti-CD11b (integrina alfa M) (M1/70), Violet Fluor 450 anti-CD14 antibody (61D3) (Tonbo), PE anti-CD115 (CSF-1R) (9-4D2-1E4) (Biolegend), PE-Cy™7 anti-CD11c (Clone B-ly6) (BD Bioscience), and APC anti-HLA-DR (REA517) (Miltenyi).” left out"}, "[7]": {"conditions": "oleuropein 50 μM, seven days, N=21 patients"}},
  "note": "Entries after “also recorded” stand apart in the source; their conditions may differ.",
  "data": [
    {"smiles": "C/C=C1/[C@H](O[C@@H]2O[C@H](CO)[C@@H](O)[C@H](O)[C@H]2O)OC=C(C(=O)OC)[C@H]1CC(=O)OCCc1ccc(O)c(O)c1", "note": "[oleuropein]", "values": [
      {"measurement": "activation of myeloid cells of subjects suffering lung cancer", "setting": "[1]; including anti-PD-1-based therapy resistance", "result": "induced the activation of myeloid cells"},
      {"measurement": "CD11b+ cells", "setting": "[1]; [7]", "result": "increase"},
      {"measurement": "expression of CD11c+HLA-DR", "setting": "[1]; [7]", "result": "elevation"},
      {"measurement": "expression of CD14+HLA-DR", "setting": "[1]; [7]", "result": "elevation"},
      {"measurement": "expression of CD115+HLA-DR", "setting": "[1]; [7]", "result": "elevation"},
      {"measurement": "decomposition by acid or enzymic hydrolysis", "setting": "[2]", "result": "decomposes easily"},
      {"measurement": "abundance of MDSC subsets and of immunosuppressive TME", "setting": "[3]", "result": "reduced the abundance of MDSC subsets in vivo as well as of immunosuppressive TME"},
      {"measurement": "morphology / phenotype", "setting": "[4]", "result": "acquired an M1-like phenotype"},
      {"measurement": "cells co-expressing MHC-II and CD80", "setting": "[5]; BML-275 500 nM, TAMs", "result": "significant elevation"},
      {"measurement": "polarization of TAMs", "setting": "[5]", "result": "polarized MDSCs and TAMs into activated myeloid cells; also recorded: polarized TAMs to activated macrophages"},
      {"measurement": "IL-12 production", "setting": "[5]; TAMs", "result": "upregulated IL-12 production only in the presence of oleuropein"},
      {"measurement": "CD4 T cell stimulation assessed by IFNγ and IL-2 production", "setting": "[6]", "result": "potently stimulated"}
    ]}
  ]
}
